Assay results from patent US12673039B2, “Methods of inducing autophagy using coumarin derivatives and related compounds” (Buck Institute for Research on Aging, priority 2019, dated 2026).

Test system: human TFEB promoter
Test: TFEB promoter secreted-luciferase assay in rat N27 neuronal cells
Format: cell-based
Conditions: 24 hour treatment, versus DMSO-control (FIG. 18, panel A)
Method: FIG. 18, panels A-F: AIC106 (Autophagy Inducing Coumarin-106) induces transcription of TFEB and its targets in vitro in rat N27 neuronal cells and in vivo in C. elegans. Panel A) Relative fold change in TFEB promoter activity compared to DMSO-control was determined by quantifying luciferase activity in supernatants collected from rat N27 neuronal cells post-24 hour treatment with C1 (AIC106), D1 and D2. [n=3 independent experiments (mean±SEM), **p<0.01, by one-way ANOVA with Dunnett's multiple comparisons test]. Panel B) Chemical structure of AIC106 and its structural derivative D1 and D2. Panel C) Relative fold change in mRNA of tfeb and its targets compared to DMSO-control were quantified using qRT-PCR in N27 neuronal cells post-24 hour treatment with AIC106 [N=3 independent experiments (mean±SD). *p<0.05, **p<0.01 and ****p<0.0001, by two-way ANOVA with Sidak's multiple comparisons test]. Panel D) Changes in HLH-30 expression were measured by quantifying GFP intensity in an individual GFP-tagged HLH-30 strain (MAH235) post-24 hours treatment with AIC106 and DMSO-control. […] Panel E) HLH-30; GFP (MAH235) were monitored by fluorescence microscopy. Panel F) Relative fold change in mRNA of hlh-30 and its targets compared to DMSO-control were quantified using qRT-PCR in young adult wild type N2 worms post-24 hours treatment with AIC106. […]

O=c1oc2c3c4c(cc2c2c1CCC2)CCCN4CCC3 [C1, 2,3,6,7,10,11-Hexahydro-1H,5H-cyclopenta(3,4)(1)benzopyrano(6,7,8-ij)quinolizin-12(9H)-one]
luciferase transcription (TFEB promoter activity): 6-7 fold
